In PubChem BioAssay AID330 (DTP/NCI, 2004):
Values joined by “and” are separate entries in the source; they are usually repeats but may differ in a detail not shown here. Identical values can stand only once. Inconclusive results and toxic doses are left out.

System: P388 leukemia ip, CD2F1 mice, survival T/C
Assay: NCI In Vivo Anticancer Drug Screen. Data for tumor model P388 Leukemia (intraperitoneal) in CD2F1 (CDF1) mice
Settings: endpoint: median survival time, higher = longer survival
In short: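 Mice carrying the transplanted tumor received test compound or vehicle. Survival was recorded in each group, and the value is the treated-group measurement divided by that of the vehicle-treated control group.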

[1] = dose: 50.0 mg/kg/injection, schedule: Q01DX005 (ip), vehicle: Klucel (hydroxypropylcellulose) (HPC)
[2] = dose: 100.0 mg/kg/injection, schedule: Q01DX005 (ip), vehicle: Klucel (hydroxypropylcellulose) (HPC)
[3] = dose: 200.0 mg/kg/injection, schedule: Q01DX005 (ip), vehicle: Klucel (hydroxypropylcellulose) (HPC)
[4] = dose: 50.0 mg/kg/injection, schedule: Q01DX009 (ip), vehicle: saline with Tween-80
[5] = dose: 100.0 mg/kg/injection, schedule: Q01DX009 (ip), vehicle: saline with Tween-80
[6] = dose: 200.0 mg/kg/injection, schedule: Q01DX009 (ip), vehicle: saline with Tween-80
[7] = dose: 50.0 mg/kg/injection, schedule: Q01DX005 (ip), vehicle: saline with Tween-80
[8] = dose: 100.0 mg/kg/injection, schedule: Q01DX005 (ip), vehicle: saline with Tween-80
[9] = dose: 60.0 mg/kg/injection, schedule: Q01DX005 (ip), vehicle: saline with Tween-80
[10] = dose: 120.0 mg/kg/injection, schedule: Q01DX005 (ip), vehicle: saline with Tween-80
[11] = dose: 240.0 mg/kg/injection, schedule: Q01DX005 (ip), vehicle: saline with Tween-80
[12] = dose: 50.0 mg/kg/injection, schedule: Q01DX009 (ip), vehicle: saline
[13] = dose: 100.0 mg/kg/injection, schedule: Q01DX009 (ip), vehicle: saline
[14] = dose: 100.0 mg/kg/injection, schedule: Q01DX001 (ip), vehicle: saline with Tween-80
[15] = dose: 200.0 mg/kg/injection, schedule: Q01DX001 (ip), vehicle: saline with Tween-80

With `N#Cc1nc(CC(=O)c2ccncc2)c(CC(=O)c2ccncc2)nc1C#N` the T/C (dose: 60.0 mg/kg/injection, schedule: Q01DX005 (ip), vehicle: saline) was 109 % of control, the T/C (dose: 120.0 mg/kg/injection, schedule: Q01DX005 (ip), vehicle: saline) was 106 % of control and the T/C (dose: 240.0 mg/kg/injection, schedule: Q01DX005 (ip), vehicle: saline) was 97 % of control.
For `N#C/C(=C/C=C/c1ccccc1)c1ccccc1`, the T/C [1] was 109 % of control, the T/C [2] was 102 % of control and the T/C [3] was 104 % of control.
For `Cc1ccc2[nH]c3c(c2c1)-c1ncncc1CC3`, the T/C (dose: 100.0 mg/kg/injection, schedule: Q04DX002 (ip), vehicle: Klucel (hydroxypropylcellulose) (HPC)) was 104 % of control and the T/C (dose: 200.0 mg/kg/injection, schedule: Q04DX002 (ip), vehicle: Klucel (hydroxypropylcellulose) (HPC)) was 92 % of control.
For `NC(CSCCSCC(N)C(=O)O)C(=O)O` (configuration not stated), the T/C (dose: 50.0 mg/kg/injection, schedule: Q01DX009 (ip), vehicle: Klucel (hydroxypropylcellulose) (HPC)) was 110 % of control, the T/C (dose: 100.0 mg/kg/injection, schedule: Q01DX009 (ip), vehicle: Klucel (hydroxypropylcellulose) (HPC)) was 98 % of control and the T/C (dose: 200.0 mg/kg/injection, schedule: Q01DX009 (ip), vehicle: Klucel (hydroxypropylcellulose) (HPC)) was 104 % of control.
With `COc1cccc2c1C(=O)c1c(O)c3c(c(O)c1C2=O)CC(O)(C(C)O)CC3OC1CCN(c2ccccc2)CC(C)O1` (configuration not stated) the T/C (dose: 3.13 mg/kg/injection, schedule: Q04DX003 (ip), vehicle: distilled water + Tween-80) was 103 % of control, the T/C (dose: 6.25 mg/kg/injection, schedule: Q04DX003 (ip), vehicle: distilled water + Tween-80) was 100 % of control and the T/C (dose: 12.5 mg/kg/injection, schedule: Q04DX003 (ip), vehicle: distilled water + Tween-80) was 108 % of control. The T/C (dose: 25.0 mg/kg/injection, schedule: Q04DX003 (ip), vehicle: distilled water + Tween-80) was 105 % of control, the T/C (dose: 50.0 mg/kg/injection, schedule: Q04DX003 (ip), vehicle: distilled water + Tween-80) was 104 % of control and the T/C (dose: 100.0 mg/kg/injection, schedule: Q04DX003 (ip), vehicle: distilled water + Tween-80) was 105 % of control. The T/C (dose: 200.0 mg/kg/injection, schedule: Q04DX003 (ip), vehicle: distilled water + Tween-80) was 124 % of control and the T/C (dose: 400.0 mg/kg/injection, schedule: Q04DX003 (ip), vehicle: distilled water + Tween-80) was 101 % of control.
With `Cc1cc[c]([Sb]2([c]3ccc(C)cc3)([c]3ccc(C)cc3)[NH]c3cc(C(c4ccccc4)(c4ccccc4)c4ccccc4)cc(C(C)(C)C)c3[O]2)cc1` the T/C [4] was 94 % of control, the T/C [5] was 92 % of control and the T/C [6] was 99 % of control.
`CC1=NNC(=O)C1N=Nc1c(C)n(C)n(-c2ccccc2)c1=O` (configuration not stated) was tested, and the T/C [7] was 100 % of control, the T/C [8] was 99 % of control and the T/C (dose: 200.0 mg/kg/injection, schedule: Q01DX005 (ip), vehicle: saline with Tween-80) was 100 % of control.
For `CN1CCOc2c1cnn(CCO)c2=O`, the T/C [9] was 108 % of control, the T/C [10] was 108 % of control and the T/C [11] was 102 % of control.
With `NC(=S)N/N=C1\C(=O)NC(=O)C1c1ccccc1` (configuration not stated) the T/C [7] was 115 % of control and the T/C [8] was 105 % of control.
With `c1ccc(Cc2cccc[n+]2C(c2ccccc2)c2ccccc2)cc1` the T/C (dose: 6.25 mg/kg/injection, schedule: Q01DX009 (ip), vehicle: Klucel (hydroxypropylcellulose) (HPC)) was 105 % of control and the T/C (dose: 12.5 mg/kg/injection, schedule: Q01DX009 (ip), vehicle: Klucel (hydroxypropylcellulose) (HPC)) was 87 % of control.
In the case of `CN(C)P(=O)(N(C)C)N1CCCCC1`, the T/C [4] is reported as 97 % of control, the T/C [5] is reported as 114 % of control and the T/C [6] is reported as 100 % of control.
`CCOC(=O)c1c(C)c2c(n1C)CCc1sc(N)nc1-2` was tested, and the T/C (dose: 50.0 mg/kg/injection, schedule: Q04DX003 (ip), vehicle: Klucel (hydroxypropylcellulose) (HPC)) was 100 % of control, the T/C (dose: 100.0 mg/kg/injection, schedule: Q04DX003 (ip), vehicle: Klucel (hydroxypropylcellulose) (HPC)) was 101 % of control and the T/C (dose: 200.0 mg/kg/injection, schedule: Q04DX003 (ip), vehicle: Klucel (hydroxypropylcellulose) (HPC)) was 94 % of control.
For `Cc1cccc(-[n+]2noc(N)n2)c1`, the T/C (dose: 3.13 mg/kg/injection, schedule: Q01DX009 (ip), vehicle: water) was 100 % of control, the T/C (dose: 6.25 mg/kg/injection, schedule: Q01DX009 (ip), vehicle: water) was 100 % of control and the T/C (dose: 12.5 mg/kg/injection, schedule: Q01DX009 (ip), vehicle: water) was 114 % of control. The T/C (dose: 25.0 mg/kg/injection, schedule: Q01DX009 (ip), vehicle: water) was 152 % of control and the T/C (dose: 50.0 mg/kg/injection, schedule: Q01DX009 (ip), vehicle: water) was 167 % of control.
In the case of `CCNC(=O)OOC(C)(C)C`, the T/C [12] is reported as 102 % of control and the T/C [13] is reported as 101 % of control.
`CC(=O)Oc1ccccc1C(=O)OC1CCN(C(C)C)C1` (configuration not stated) was tested, and the T/C (dose: 100.0 mg/kg/injection, schedule: Q04DX003 (ip), vehicle: saline) was 100 % of control and the T/C (dose: 200.0 mg/kg/injection, schedule: Q04DX003 (ip), vehicle: saline) was 95 % of control.
For `O=C(O)C1CCCCC1c1c2ccc(=O)c(O)c-2oc2c(O)c(O)ccc12` (configuration not stated), the T/C (dose: 15.0 mg/kg/injection, schedule: Q01DX005 (ip), vehicle: saline with Tween-80) was 102 % of control, the T/C (dose: 30.0 mg/kg/injection, schedule: Q01DX005 (ip), vehicle: saline with Tween-80) was 102 % of control and 105 % of control and the T/C [9] was 110 % of control and 111 % of control and 119 % of control. For the same molecule, the T/C [10] was 107 % of control and 111 % of control and 112 % of control and the T/C [11] was 121 % of control.
With `CCOC(=O)C(c1ccccc1)c1cccc(C(C(=O)OCC)c2ccccc2)n1` (configuration not stated) the T/C [9] was 93 % of control, the T/C [10] was 90 % of control and the T/C [11] was 87 % of control.
In the case of `COc1ccc2c(c1)OC1COc3cc(OC)c(OC)cc3C1C2=O` (configuration not stated), the T/C (dose: 12.5 mg/kg/injection, schedule: Q01DX009 (ip), vehicle: saline) is reported as 101 % of control, the T/C (dose: 25.0 mg/kg/injection, schedule: Q01DX009 (ip), vehicle: saline) is reported as 94 % of control and the T/C [12] is reported as 92 % of control. The T/C [13] was 93 % of control.
`C=CC(C)C(O)C(=O)OC` (configuration not stated) was tested, and the T/C [14] was 98 % of control, the T/C [15] was 110 % of control and the T/C (dose: 400.0 mg/kg/injection, schedule: Q01DX001 (ip), vehicle: saline with Tween-80) was 103 % of control.
In the case of `CCOC(=O)Nc1nc2ccccc2n1CN1CCN(C)CC1`, the T/C (dose: 25.0 mg/kg/injection, schedule: Q01DX005 (ip), vehicle: Klucel (hydroxypropylcellulose) (HPC)) is reported as 99 % of control, the T/C [1] is reported as 102 % of control and 97 % of control and the T/C [2] is reported as 100 % of control and 107 % of control. For the same molecule, the T/C [3] was 113 % of control and 120 % of control.
In the case of `O=C1c2ccccc2C(=O)c2c1ccc1nc(Cl)c(=O)[nH]c21`, the T/C [9] is reported as 94 % of control, the T/C [10] is reported as 97 % of control and the T/C [11] is reported as 94 % of control.
`Nc1nnc2nc(CC(=O)c3ccccc3[N+](=O)[O-])c(CC(=O)c3ccccc3[N+](=O)[O-])nn12` was tested, and the T/C [9] was 100 % of control, the T/C [10] was 101 % of control and the T/C [11] was 100 % of control.
For `N#Cc1c(C(=O)NN)c2c(-c3ccccc3)n[nH]c(=O)c2[nH]c1=O`, the T/C [14] was 100 % of control and the T/C [15] was 91 % of control.
`O=C1c2ccccc2C(=O)N1c1nncs1` was tested, and the T/C (dose: 100.0 mg/kg/injection, schedule: Q04DX002 (ip), vehicle: saline with Tween-80) was 99 % of control, the T/C (dose: 200.0 mg/kg/injection, schedule: Q04DX002 (ip), vehicle: saline with Tween-80) was 99 % of control and the T/C (dose: 400.0 mg/kg/injection, schedule: Q04DX002 (ip), vehicle: saline with Tween-80) was 101 % of control.
`CC1CN=C(c2cccc(NC(=O)NCCCCNC(=O)Nc3cccc(C4=NCC(C)N4)c3)c2)N1` (configuration not stated) was tested, and the T/C (dose: 6.25 mg/kg/injection, schedule: Q01DX005 (ip), vehicle: saline with Tween-80) was 100 % of control and the T/C (dose: 12.5 mg/kg/injection, schedule: Q01DX005 (ip), vehicle: saline with Tween-80) was 104 % of control.
With `S=C(NNc1nnc(-c2ccccc2)c(-c2ccccc2)n1)NC1CCCCC1` the T/C [7] was 93 % of control and the T/C [8] was 88 % of control.
With `CC(C)C(N)C(=O)NN` (configuration not stated) the T/C (dose: 50.0 mg/kg/injection, schedule: Q01DX005 (ip), vehicle: saline) was 110 % of control, the T/C (dose: 100.0 mg/kg/injection, schedule: Q01DX005 (ip), vehicle: saline) was 105 % of control and the T/C (dose: 200.0 mg/kg/injection, schedule: Q01DX005 (ip), vehicle: saline) was 110 % of control.
In the case of `CN(C)c1ccc2[nH]cc(C(=O)O)c(=O)c2c1`, the T/C (dose: 7.5 mg/kg/injection, schedule: Q01DX005 (ip), vehicle: Klucel (hydroxypropylcellulose) (HPC)) is reported as 99 % of control, the T/C (dose: 15.0 mg/kg/injection, schedule: Q01DX005 (ip), vehicle: Klucel (hydroxypropylcellulose) (HPC)) is reported as 102 % of control and the T/C (dose: 30.0 mg/kg/injection, schedule: Q01DX005 (ip), vehicle: Klucel (hydroxypropylcellulose) (HPC)) is reported as 102 % of control.
